Measured values reported in patent US6812213B2, “Steroidal sapogenins and their derivatives for treating alzheimer's disease” (Phytopharm, plc, priority 1998, dated 2004).
“And” between values parts separate entries of the source, which are not always exact repeats. Identical values can stand only once.

What was measured:
[1] = system: m2 receptors on CHO cells; assay: Expression of m2 receptors on transfected CHO cells (tritiated QNB binding); format: cell-based; settings: DMSO control
Experimental: 1. Chinese hamster ovary (CHO) cells transfected with the a DNA fragment coding for a muscarinic receptor. The cell line used for the majority of the experiments was a cell line expressing the m2 receptor.
The effects of various compounds on the expression of m2 receptors on CHO cells transfected with DNA for the m2 receptor were investigated. Receptor numbers were assayed using tritiated QNB binding and subtracting non-specific binding. Compounds were dissolved in DMSO and DMSO was used as a control. Compounds were tested at a range of final concentrations. Compounds were also tested in the presence and absence of tamoxifen to try to distinguish an oestrogen receptor mediated mechanism.

[2] = system: oestrogen receptor; assay: Oestrogenic effects of steroid sapogenin compounds
Source text: In identifying compounds that would have use in the treatment of SDAT and other diseases characterised by reductions in receptor numbers or synaptic transmission, the inventors have given consideration to the need to identify compounds that would have the desired effect but would be devoid of any oestrogenic effects, as these would be unacceptable, particularly in male patients. A number of the compounds claimed to have activity in patent application DE 4303214A1 have marked oestrogenic activity and are therefore unacceptable.
In addition these compounds were tested at other steroid receptors as it was considered that compounds that would be of clinical sue should have no effects at the other steroid receptors.

[3] = system: muscarinic receptors on cultured cardiac muscle cells; assay: Muscarinic receptor expression on cultured neonatal cardiac muscle cells (tritiated QNB); format: cell-based, Sprague Dawley rats
Experimental: 3. Cultured cardiac muscle cells obtained from neonatal Sprague Dawley rats. The cardiac muscle cells express muscarinic receptors, typically m2. The level of these receptors falls on prolonged culture and the effects of compounds of interest in preventing the fall in receptor numbers was investigated.
Cardiac muscle cells were isolated from the ventricular muscle of neonatal Sprague Dawley rats using standard techniques. Cells were cultured in vitro and muscarinic receptor numbers expressed on cell surfaces membrane fragments after homogenisation of cells harvested at various time points were estimated using specific binding of tritiated QNB. […] The experiments were therefore designed to investigate the effects of the various compounds in inhibiting this decline in receptor numbers.

[4] = system: β-adrenergic receptors; settings: Chinese Patent No. CN1096031A; cited from earlier work
[5] = system: M1 cholinergic receptors; settings: Chinese Patent No. CN1096031A; cited from earlier work
[6] = system: known steroidal receptors; assay: Binding to known steroidal receptors
[7] = system: major known classes of membrane bound receptor; assay: Direct binding to major known classes of membrane bound receptor
Source text: Thus it can be postulated that the observed effects are probably not due to for instance an effect at the nicotinic receptor and a consequential increase in the number of muscarinic receptors. This explanation appears to be even less plausible (although it cannot be excluded) if one considers that certain of the compounds have also been shown by the inventors to increase the number of beta adrenergic receptors expressed on peripheral blood lymphocytes. Thus the mechanism would appear to be one which has a more general effect on the regulation of membrane bound receptors.

[8] = system: m1 receptor mRNA; assay: m1 receptor mRNA levels in brain by in situ hybridisation; format: in vivo, SD rats; settings: for m1 receptor mRNA, comparison SaG vs Aged: 3 mg sarsasapogenin per rat per day in feed, four months, positive means increased
Experimental: 20 months old pure-line male SD rats were divided randomly into 2 groups. One group received an average of 3 mg of sarsasapogenin per rat per day mixed into the daily feed. The control group received normal food and water. Four months later, their brains were used in hybridisation technique experiments, with 4 to 6 months old rats used as a young control group. Other feeding arrangements for each group were completely identical.
A cDNA chain which respectively corresponds to the maNA of both m1 and m2 was synthesised, m1 corresponds to the 3-18 amino acid sequence of receptor protein, i.e. TGGTGCCAAGACAGTGATGTTGGGACTGACAGCAGGGGGCACTGAGGT, and M2 to the 1-16 amino acid sequence, i.e. ATGAATAACTCAACAAACTCCTCGAACAATGGCTTGGCTATTACCAGT. The cDNA was labelled using a 3′-terminal-label reagent kit with a-^35S-dATP (8.9 TBq/mmol) as the label material. After the reaction had finished, it was purified with a nucleotide column. The specific activity of the batch was estimated (16.67-33.34)×108 MBq/μg. a-^35S-dATP, 3′-terminal-label reagent kit and nucleotide column were obtained from Du Pont Co., USA.
One rat was obtained from each group each time and parallel experiments were performed. The rats were decapitated and their brains removed intact. 15 μm thick coronal slices were prepared in a constantly freezing cryo-microtome (AS-600 cryo-microtome, Anglia Scientific Co, UK). Slices were taken from different areas (identical places for each rat) and were mounted on slides smeared with polylysine, dried in a cool current of air, fixed in a solution of 4% paraformaldehyde (containing 1×phosphate buffer saline (PBS), pH 7.0) for 5 minutes before being washed twice in PBS. They were then placed in 0.25% acetic anhydride solution (containing 0.1 M triethanolamine hydrochloride, Ph 8.0, and 0.9% sodium chloride) for 10 minutes, dehydrated in 70%, 80%, 95%, and 100% ethyl alcohol for 1 minute, degreased in chloroform for 5 minutes, and finally treated in 100% and 95% ethyl alcohol for 1 minute successively.
Slices used as negative controls were taken and dehydrated in ethyl alcohol etc. as detailed above, but treated in advance in 100 mg m1 RNase and 2×SSC solution (salt/sodium citrate solution containing 300 mmol/L sodium chloride and […] sodium citrate) for 2 hours at 37° C. […]
Autoradiographs were prepared in a dark room, the specimen and the hyperfilm beta max being pressed together using the contact method and placed in a cassette with a desiccant, exposed at 4° C. for 2 to 3 weeks. […] Finally, the autoradiographs were analysed using a computerised image analyser (VIDAS imaging analyser, Kontron, Germany).

[9] = Molar concentration of compound 10^−5

Compound	Effect on receptor expression—given as % increase compared to control (negative values in brackets) [1, 9]	Oestrogenic Activity [2]	Concentration of compound causing a significant increase in number of receptors expressed on neonatal cardiac muscle after 10 days in vitro culture [3]	other results
Smilagenin	57%	Negative	10^−6 M	Effect on receptor expression—given as % increase compared to control (negative values in brackets) ([1]; Molar concentration of compound 10^−6): 18%
C[C@@H]1CC[C@@]2(OC1)O[C@H]1C[C@H]3[C@@H]4CC=C5C[C@@H](O)C[C@@H](O)[C@]5(C)[C@H]4CC[C@]3(C)[C@H]1[C@@H]2C [Ruscogenin]	–	Positive	–	–
C[C@@H]1CC[C@@]2(OC1)O[C@H]1C[C@H]3[C@@H]4C[C@@H](O)[C@@]5(O)C[C@@H](O)CC[C@]5(C)[C@H]4CC[C@]3(C)[C@H]1[C@@H]2C [Anzurogenin D]	22%	Negative	10^−6 M	–
Tigogenin	–	Negative	–	–
Sarsasapogenin	34%	Negative	10^−5 M	regulation of β-adrenergic receptors [4]: down-regulate; regulation of M1 cholinergic receptors [5]: up-regulate; binding to known steroidal receptors [6]: do not bind; direct binding to membrane bound receptors [7]: not to bind directly; m1 receptor mRNA, comparison SaG vs Aged ([8]; Cortex): 5.77 ± 3.82 (20); m1 receptor mRNA, comparison SaG vs Aged ([8]; Hippocampus): 0.96 ± 4.26 (10); m1 receptor mRNA, comparison SaG vs Aged ([8]; Striatum, p < 0.01, listed as SaG): significant increase and 15.71 ± 3.27 (10); levels of M receptor mRNA ([8]; rats treated with SaG): raised
Astragaloside	–	Negative	10^−5 M	–
C[C@@H]1CC[C@@]2(OC1)O[C@H]1C[C@H]3[C@@H]4CC=C5C[C@@H](O)CC[C@]5(C)[C@H]4CC[C@]3(C)[C@H]1[C@@H]2C [Diosgenin]	–	Positive	–	–
